Target: T1, PI3Kγ (purified recombinant p101/p110γ protein) (Homo sapiens, UniProt P48736)
T1 construct: HA; made in house; host or cells: Spodoptera frugiperda Sf9 cells (baculovirus coinfection)
Assay: PI3Kγ in vitro kinase assay
Format: biochemical
Conditions: 20 μM ATP, 25 μM PIP2, G protein β1/γ2 subunits
Method: Spodtera frugiperda cells, grown in ESF921 media, were coinfected with baculovirus expressing a glu-tagged p101 and baculovirus expressing an HA-tagged […], at a 3:1 ratio of p101 baculovirus to p110γ baculovirus. Sf9 cells were grown to 1×10^7 total cells/mL in 10 L bioreactors and harvested 48-72 hours post infection. Samples of infected cells were then tested for expression of p101/p110γ PI3 kinase by immunoprecipitation and Western Blot analysis methods (see below).
To purify PI3Kγ, 4 volumes of room temperature hypotonic lysis buffer (1 mM MgCl2, 1 mM DTT, 5 mM EGTA, 1 mM Pefabloc, 0.5 μM aprotinin, 5 μM leupeptin, 2 μM pepstatin, 5 μM E64, pH 8) per gram of cell paste, was poured onto frozen cell pellets with stirring, then lysed in a nitrogen “bomb” at 400 psi (599HC T316, Parr Instrument Co, Moline, Ill.). NaCl was added to 150 mM, and sodium cholate was added to 1% and mixed for another 45 minutes. The lysates were clarified by centrifugation for 25 minutes at 14,000 rpm. The lysates were then loaded over anti-glu-linked Protein-G Sepaharose beads (Covance Research Products, Richmond, Calif.) using 20 mL resin/50 g cell paste. The column was washed with 15 volumes of wash buffer (1 mM DTT, 0.2 mM EGTA, 1 mM Pefabloc, 0.5 μM aprotinin, 5 μM leupeptin, 2 μM pepstatin, 5 μM E64, 150 mM NaCl, 1% sodium cholate, pH 8). PI3Kγ was eluted with 6 column volumes of wash buffer that contain 100 μg/mL of a peptide that competes for binding of the glu tag. The column fractions with the eluted protein (determined by taking OD280 readings) were collected and dialyzed in 0.2 mM EGTA, 1 mM DTT, 1 mM Pefabloc, 5 μM leupeptin, 0.5% sodium cholate, 150 mM NaCl, and 50% glycerol, pH 8. The fractions were stored at −80° C. until further use.
Spodtera frugiperda cells were coinfected with baculovirus expressing a glu-tagged G protein β1 and baculovirus expressing a G protein β2, at a 1:1 ratio of glu-tagged G protein β1 baculovirus to G protein β2 baculovirus. Sf9 cells are grown in 10 L bioreactors and harvested 48-72 hours post infection. Samples of infected cells were tested for G protein β1/β2 expression by Western Blot analysis, as described below. Cell lysates were homogenized and loaded onto a column of glu-tagged beads as in Biological Example 1 and competed off the column with a glu peptide and processed as described in Biological Example 1.
The inhibitory properties of the compounds in Table 1 were assayed in an in vitro PI3K assay. In a 96-well polypropylene plate, each well was spotted with 2 μL of 50 times the desired final concentration of compound in DMSO. Purified recombinant p101/p110γ protein (0.03 μg; ˜2.7 nM) and G protein β1/γ2 subunits (0.09 μg; ˜57.7 nM) for each reaction was combined in the assay buffer (30 mM HEPES, 100 mM NaCl, 1 mM EGTA, and 1 mM DTT). ATP and [γ-^32P-ATP] (0.09 μCi) were added to this mixture so that the final ATP concentration in the reaction was 20 μM. Lipid micelles were formed by sonicating phosphatidylinositol-4,5-diphosphate (PIP2), phosphatidylethanolamine (PE), and Na-cholate in the assay buffer for 10 minutes, adding MgCl2 and incubating on ice for 20 minutes, for final concentrations of 25 μM PIP2, 300 μM PE, 0.02% Na-cholate, and 10 mM MgCl2 in the reaction. The reactions were started by adding equal volumes lipid and enzyme mixture in a total volume of 50 μL, allowed to run for 20 minutes at room temperature, and stopped with 100 μL 75 mM H3PO4. The lipid product was transferred to a glass fiber filter plate and washed with 75 mM H3PO4 several times. The presence of radioactive lipid product (PIP3) was measured by adding Wallac Optiphase mix to each well and counting in a Wallac 1450 Trilux plate reader (PerkinElmer Life Sciences Inc., Boston, Mass. 02118). The IC50 for each compound tested is reported in μM in the Tables above.

T1 sequence (P48736 whole entry, species assumed): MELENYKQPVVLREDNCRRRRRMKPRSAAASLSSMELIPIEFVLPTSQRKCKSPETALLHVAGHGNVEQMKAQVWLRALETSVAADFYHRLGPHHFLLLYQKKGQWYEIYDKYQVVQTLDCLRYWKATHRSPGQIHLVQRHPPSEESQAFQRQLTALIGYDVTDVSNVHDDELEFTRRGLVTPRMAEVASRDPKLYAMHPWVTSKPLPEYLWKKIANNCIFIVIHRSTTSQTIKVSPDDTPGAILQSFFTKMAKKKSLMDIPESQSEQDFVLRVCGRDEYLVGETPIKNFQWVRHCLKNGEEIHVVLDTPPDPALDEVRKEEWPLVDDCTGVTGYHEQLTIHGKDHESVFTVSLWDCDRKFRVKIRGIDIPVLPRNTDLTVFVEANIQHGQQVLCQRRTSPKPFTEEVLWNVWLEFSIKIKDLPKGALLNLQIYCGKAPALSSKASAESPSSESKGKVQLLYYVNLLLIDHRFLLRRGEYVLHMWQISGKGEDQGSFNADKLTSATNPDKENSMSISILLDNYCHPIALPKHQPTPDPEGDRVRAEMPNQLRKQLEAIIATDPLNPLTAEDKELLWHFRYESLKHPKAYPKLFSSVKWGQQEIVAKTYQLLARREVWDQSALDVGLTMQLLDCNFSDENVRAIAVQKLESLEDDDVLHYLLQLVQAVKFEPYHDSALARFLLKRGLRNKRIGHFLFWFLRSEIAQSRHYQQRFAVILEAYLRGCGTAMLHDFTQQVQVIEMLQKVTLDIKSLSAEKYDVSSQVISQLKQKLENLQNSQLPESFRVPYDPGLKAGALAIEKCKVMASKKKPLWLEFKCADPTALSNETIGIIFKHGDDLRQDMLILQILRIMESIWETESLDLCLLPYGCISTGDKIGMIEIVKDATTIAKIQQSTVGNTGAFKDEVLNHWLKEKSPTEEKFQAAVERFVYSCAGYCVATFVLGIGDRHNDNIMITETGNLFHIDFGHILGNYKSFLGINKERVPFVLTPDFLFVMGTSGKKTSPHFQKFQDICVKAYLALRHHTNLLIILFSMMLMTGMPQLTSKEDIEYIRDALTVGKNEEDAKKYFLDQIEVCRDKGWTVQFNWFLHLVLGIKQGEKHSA
T1 sequence (Q8WYR1 whole entry partner, species assumed): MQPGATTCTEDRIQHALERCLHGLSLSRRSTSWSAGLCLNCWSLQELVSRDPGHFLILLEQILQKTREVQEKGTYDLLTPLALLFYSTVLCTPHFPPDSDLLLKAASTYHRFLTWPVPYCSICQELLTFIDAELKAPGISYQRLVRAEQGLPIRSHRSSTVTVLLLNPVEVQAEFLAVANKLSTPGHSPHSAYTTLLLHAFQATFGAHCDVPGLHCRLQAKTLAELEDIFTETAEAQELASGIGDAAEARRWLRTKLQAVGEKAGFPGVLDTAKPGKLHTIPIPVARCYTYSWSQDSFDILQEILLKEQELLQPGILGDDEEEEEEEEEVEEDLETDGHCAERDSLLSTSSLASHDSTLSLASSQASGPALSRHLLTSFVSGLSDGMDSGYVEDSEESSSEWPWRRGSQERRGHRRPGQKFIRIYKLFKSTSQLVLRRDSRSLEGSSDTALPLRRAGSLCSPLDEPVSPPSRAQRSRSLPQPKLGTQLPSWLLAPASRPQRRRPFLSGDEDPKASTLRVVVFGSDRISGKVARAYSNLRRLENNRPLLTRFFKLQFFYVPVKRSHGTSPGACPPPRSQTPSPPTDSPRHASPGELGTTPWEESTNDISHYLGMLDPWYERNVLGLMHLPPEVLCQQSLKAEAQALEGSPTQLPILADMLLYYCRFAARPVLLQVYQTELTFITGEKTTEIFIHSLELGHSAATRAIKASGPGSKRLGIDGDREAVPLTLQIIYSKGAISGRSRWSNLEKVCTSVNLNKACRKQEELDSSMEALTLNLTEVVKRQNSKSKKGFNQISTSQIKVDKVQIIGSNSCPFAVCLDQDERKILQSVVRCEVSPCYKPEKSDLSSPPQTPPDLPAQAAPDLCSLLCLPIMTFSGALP

Row | Compound | IC50 | other results
1 | 3-(4-Chloro-phenylsulfanyl)-6-fluoro-5-methoxy-benzo[b]thiophene-2-carboxylic acid (1H-tetrazol-5-yl)-amide [Example 20] | 45.5 nM | –
2 | 3-(4-Cyclohexyl-phenylsulfanyl)-4-fluoro-5-methoxy-benzo[b]thiophene-2-carboxylic acid (1H-tetrazol-5-yl)-amide [Example 37] | 505 nM | –
3 | 3-Cyclohexylsulfanyl-6-fluoro-5-methyl-benzo[b]thiophene-2-carboxylic acid (1H-tetrazol-5-yl)-amide [Example 41] | – | IC50 (table b291): 12 nM
4 | 3-[2-(Acetyl-methyl-amino)-1-phenyl-propylsulfanyl]-4-fluoro-5-methoxy-benzo[b]thiophene-2-carboxylic acid (1H-tetrazol-5-yl)-amide [Example 30] | 20000 nM | –
5 | 4-Fluoro-5-methoxy-3-(3-trifluoromethyl-phenylsulfanyl)-benzo[b]thiophene-2-carboxylic acid (1H-tetrazol-5-yl)-amide [Example 29] | 11000 nM | –
6 | 6-Fluoro-5-methoxy-3-phenoxy-benzo[b]thiophene-2-carboxylic acid iminomethyl-amide [Example 3] | 24.5 nM | –
7 | COc1cc2c(O[C@H]3CCC[C@@H](C)C3)c(C(=O)Nc3nn[nH]n3)sc2cc1F (racemic) [Example 9, cis-(±)-6-Fluoro-5-methoxy-3-(3-methyl-cyclohexyloxy)-benzo[b]thiophene-2-carboxylic acid (2H-tetrazol-5-yl)-amide] | 3.8 nM | –
8 | COc1cc2c(O[C@H]3CCC[C@H](C)C3)c(C(=O)Nc3nn[nH]n3)sc2cc1F (racemic) [Example 17, trans-(±)-6-Fluoro-5-methoxy-3-(3-methyl-cyclohexyloxy)-benzo[b]thiophene-2-carboxylic acid (2H-tetrazol-5-yl)-amide] | – | IC50 (table b197): 35 nM
9 | COc1cc2c(Oc3ccc(Cl)cc3)c(C(=O)Nc3nn[nH]n3)sc2cc1F [Example 1, 3-(4-Chloro-phenoxy)-6-fluoro-5-methoxy-benzo[b]thiophene-2-carboxylic acid (2H-tetrazol-5-yl)-amide] | 76.5 nM | –
10 | COc1cc2c(Oc3ccc(OC4CCCC4)cc3)c(C(=O)Nc3nn[nH]n3)sc2cc1F [Example 2, 3-(4-Cyclopentyloxy-phenoxy)-6-fluoro-5-methoxy-benzo[b]thiophene-2-carboxylic acid (2H-tetrazol-5-yl)-amide] | 15 nM | –
11 | COc1cc2c(Oc3ccc(C4CCCCC4)cc3)c(C(=O)Nc3nn[nH]n3)sc2cc1F [Example 4, 3-(4-Cyclohexyl-phenoxy)-6-fluoro-5-methoxy-benzo[b]thiophene-2-carboxylic acid (2H-tetrazol-5-yl)-amide] | 33.5 nM | –
12 | CCc1cccc(Oc2c(C(=O)Nc3nn[nH]n3)sc3cc(F)c(OC)cc23)c1 [Example 5, 3-(3-Ethyl-phenoxy)-6-fluoro-5-methoxy-benzo[b]thiophene-2-carboxylic acid (2H-tetrazol-5-yl)-amide] | 62.5 nM | –
13 | COc1cc2c(Oc3ccc(C(C)C)cc3)c(C(=O)Nc3nn[nH]n3)sc2cc1F [Example 6, 6-Fluoro-3-(4-isopropyl-phenoxy)-5-methoxy-benzo[b]thiophene-2-carboxylic acid (2H-tetrazol-5-yl)-amide] | 13.5 nM | –
14 | COc1cc2c(OC3CCCCC3)c(C(=O)Nc3nn[nH]n3)sc2cc1F [Example 7, 3-Cyclohexyloxy-6-fluoro-5-methoxy-benzo[b]thiophene-2-carboxylic acid (2H-tetrazol-5-yl)-amide] | 10.5 nM | –
15 | COc1cc2c(OC3CCCCCC3)c(C(=O)Nc3nn[nH]n3)sc2cc1F [Example 8, 3-Cycloheptyloxy-6-fluoro-5-methoxy-benzo[b]thiophene-2-carboxylic acid (2H-tetrazol-5-yl)-amide] | 3.4 nM | –
16 | COc1cc2c(OC3CC(C)CC(C)(C)C3)c(C(=O)Nc3nn[nH]n3)sc2cc1F (stereo not drawn) [Example 12, 6-Fluoro-5-methoxy-3-(3,3,5-trimethyl-cyclohexyloxy)-benzo[b]thiophene-2-carboxylic acid (2H-tetrazol-5-yl)-amide] | 5.3 nM | –
17 | COc1cc2c(OC3CCCC(C)(C)C3)c(C(=O)Nc3nn[nH]n3)sc2cc1F (stereo not drawn) [Example 13, 3-(3,3-Dimethyl-cyclohexyloxy)-6-fluoro-5-methoxy-benzo[b]thiophene-2-carboxylic acid (2H-tetrazol-5-yl)-amide] | 6.5 nM | –
18 | COc1cc2c(OC3CCOCC3)c(C(=O)Nc3nn[nH]n3)sc2cc1F [Example 14, 6-Fluoro-5-methoxy-3-(tetrahydro-pyran-4-yloxy)-benzo[b]thiophene-2-carboxylic acid (2H-tetrazol-5-yl)-amide] | 62.5 nM | –
19 | COc1cc2c(OC3CC(C)CC(C)C3)c(C(=O)Nc3nn[nH]n3)sc2cc1F (stereo not drawn) [Example 15, 3-(3,5-Dimethyl-cyclohexyloxy)-6-fluoro-5-methoxy-benzo[b]thiophene-2-carboxylic acid (2H-tetrazol-5-yl)-amide] | 2.2 nM | –
20 | COc1cc2c(OC3CCC3)c(C(=O)Nc3nn[nH]n3)sc2cc1F [Example 16, 3-Cyclobutoxy-6-fluoro-5-methoxy-benzo[b]thiophene-2-carboxylic acid (2H-tetrazol-5-yl)-amide] | 32.5 nM | –
21 | COc1cccc(Sc2c(C(=O)Nc3nnn[nH]3)sc3cc(F)c(OC)cc23)c1 [Example 18, 6-Fluoro-5-methoxy-3-(3-methoxy-phenylsulfanyl)-benzo[b]thiophene-2-carboxylic acid (1H-tetrazol-5-yl)-amide] | 470 nM | –
22 | COc1cc2c(Sc3ccccc3)c(C(=O)Nc3nnn[nH]3)sc2cc1F [Example 19, 6-Fluoro-5-methoxy-3-phenylsulfanyl-benzo[b]thiophene-2-carboxylic acid (1H-tetrazol-5-yl)-amide] | 32.5 nM | –
23 | COc1ccc2sc(C(=O)Nc3nnn[nH]3)c(SC3CCCCC3)c2c1F [Example 21, 3-Cyclohexylsulfanyl-4-fluoro-5-methoxy-benzo[b]thiophene-2-carboxylic acid (1H-tetrazol-5-yl)-amide] | 580 nM | –
24 | COc1ccc2sc(C(=O)Nc3nnn[nH]3)c(Sc3ccc(O)cc3)c2c1F [Example 22, 4-Fluoro-3-(4-hydroxy-phenylsulfanyl)-5-methoxy-benzo[b]thiophene-2-carboxylic acid (1H-tetrazol-5-yl)-amide] | 2760 nM | –
25 | COc1ccc2sc(C(=O)Nc3nnn[nH]3)c(Sc3cccc(O)c3)c2c1F [Example 23, 4-Fluoro-3-(3-hydroxy-phenylsulfanyl)-5-methoxy-benzo[b]thiophene-2-carboxylic acid (1H-tetrazol-5-yl)-amide] | 3640 nM | –
26 | COC(=O)c1cccc(Sc2c(C(=O)Nc3nnn[nH]3)sc3ccc(OC)c(F)c23)c1 [Example 24, 3-[4-Fluoro-5-methoxy-2-(1H-tetrazol-5-ylcarbamoyl)-benzo[b]thiophen-3-ylsulfanyl]-benzoic acid methyl ester] | 4200 nM | –
27 | COc1ccc2sc(C(=O)Nc3nnn[nH]3)c(Sc3cccc(C(=O)O)c3)c2c1F [Example 25, 3-[4-Fluoro-5-methoxy-2-(1H-tetrazol-5-ylcarbamoyl)-benzo[b]thiophen-3-ylsulfanyl]-benzoic acid] | 2390 nM | –

Reference: patent US20050096350A1, “Halo substituted benzo[b]thiophenes as therapeutic agents” (priority 2003, published 2005)
